Laboratory results taken from patent US6514692B2, “Method for treatment of immunodeficiency virus infection” (priority 1996, dated 2003).
Where “and” joins values, the source holds several entries; their conditions need not be identical. Equal values may be shown once. Read-outs that look alike come from different tables or passages of the source.

Legend:
SK1 isolate of HIV-1 = settings: for p24 VALUES, single samples: samples 1-3; for IC50 (inhibition of cell-cell transmission): linear regression
Text: (§1) ME180 cells, a cervical epithelial cell line, were obtained from the American Type Culture Collection. These cells were thawed from liquid nitrogen and grown in RPMI 1640 medium supplemented with 10t fetal bovine serum, glutamine and antibiotics. The cells were adherent and were trypsinized (0.5% trypsin in HBSS) to remove them from the flask for passaging and use in assays. For use in the microtiter transmission inhibition assay, ME180 cells were trypsinized, washed and seeded in 96-well flat bottom microtiter plates (COSTAR) at a density of 5×10^3 cells per well. The cells were incubated at 37° C. for 24 hours prior to the tart of the assay. H9 cells chronically infected with he SK1 isolate of HIV-1 were treated with 200 μg/ml mitomycin C for 60 minutes at 37° C. After treatment the cells were washed three times with tissue culture medium. The chronically infected lymphocytes were added to each well at a density of 2×10^4 cells per well. The concentration of mitomycin C used in the treatment of the lymphocytes was chosen to allow lymphocyte survival for the period of time required to transmit virus to the uninfected ME180 cells, but to die prior to the time of assay so as not to contribute to the p24 signal used as the endpoint (see below). In the transmission assay the lytic peptides D4E1 and D2A21, with and without 150 μg/ml pig mucin, were added prior to the addition of chronically infected cells or were mixed with the chronically infected cells prior to their addition to the monolayer of ME180 cells. Mucin was included because it is an abundant constituent of the normal vaginal secretions of a human being, thus any chemotherapeutic agent targeting HIV should be active in its presence if it is to have clinical value. […] The lymphocytes and peptide were co-cultured with the ME180 cells for 6 hours and then removed by washing the ME180 monolayer four times with PBS. The plate was then incubated at 37° C. for six days. Medium was removed and changed every 48 hours during the incubation stage. No further peptide was added after the initial dose. At six days post-co-cultivation, the supernatant was removed from the wells and evaluated for the quantity of p24 antigen by ELISA. The ELISA was performed according to the manufacturer's recommendations. The amount of virus production in wells treated with various concentrations of the peptides was evaluated with appropriate cell and virus controls. Data are reported as a percent of virus control at each drug concentration. Linear regression analysis was used to calculate the […] and IC95 concentrations of the transmission inhibitor. […] TI represents the toxicity index, which is the ratio of the TC50/IC50, and is an indication of the relative concentrations window that exists between efficacy and toxicity.

ME180 cells = assay: toxicity (XTT) in transmission inhibition assay; settings: for TOXICITY VALUES (XTT), single samples: samples 1-3; for TC50 (concentration at which 50% of cells are eliminated): interpolation from % CC
Text: as §1

[1] = 0.32 μg/ml, with 150 μg/ml pig mucin
[2] = 1 μg/ml, with 150 μg/ml pig mucin
[3] = 3.2 μg/ml, with 150 μg/ml pig mucin
[4] = 10 μg/ml, with 150 μg/ml pig mucin
[5] = 32 μg/ml, with 150 μg/ml pig mucin
[6] = 100 μg/ml, with 150 μg/ml pig mucin

Substance: dextran sulfate
- % VC (p24, percent of virus control) (SK1 isolate of HIV-1; 0.32 μg/ml, no mucin): 5.9%
- p24 VALUES, MEAN (SK1 isolate of HIV-1; 0.32 μg/ml, no mucin): 3.2 µg/mL
- % VC (p24, percent of virus control) (SK1 isolate of HIV-1; [1]): 7.7%
- p24 VALUES, MEAN (SK1 isolate of HIV-1; [1]): 4.5 µg/mL
- p24 VALUES, single samples (SK1 isolate of HIV-1; [1]): 5.0 µg/mL and 3.2 µg/mL and 6.1 µg/mL
- % VC (p24, percent of virus control) (SK1 isolate of HIV-1; 1 μg/ml, no mucin): 7.6%
- p24 VALUES, MEAN (SK1 isolate of HIV-1; 1 μg/ml, no mucin): 4.1 µg/mL
- % VC (p24, percent of virus control) (SK1 isolate of HIV-1; [2]): 7.8%
- p24 VALUES, MEAN (SK1 isolate of HIV-1; [2]): 4.9 µg/mL
- % VC (p24, percent of virus control) (SK1 isolate of HIV-1; 3.2 μg/ml, no mucin): 0.0%
- p24 VALUES, MEAN (SK1 isolate of HIV-1; 3.2 μg/ml, no mucin): 0.0 µg/mL
- p24 VALUES, single samples (SK1 isolate of HIV-1; 3.2 μg/ml, no mucin): 0.0 µg/mL
- % VC (p24, percent of virus control) (SK1 isolate of HIV-1; [3]): 11.4%
- p24 VALUES, MEAN (SK1 isolate of HIV-1; [3]): 7.1 µg/mL
- % VC (p24, percent of virus control) (SK1 isolate of HIV-1; 10 μg/ml, no mucin): 0.2%
- p24 VALUES, MEAN (SK1 isolate of HIV-1; 10 μg/ml, no mucin): 0.0 µg/mL
- % VC (p24, percent of virus control) (SK1 isolate of HIV-1; [4]): 11.6%
- p24 VALUES, MEAN (SK1 isolate of HIV-1; [4]): 7.2 µg/mL
- % VC (p24, percent of virus control) (SK1 isolate of HIV-1; 32 μg/ml, no mucin): 0.0%
- p24 VALUES, MEAN (SK1 isolate of HIV-1; 32 μg/ml, no mucin): 0.0 µg/mL
- p24 VALUES, single samples (SK1 isolate of HIV-1; 32 μg/ml, no mucin): 0.0 µg/mL
- % VC (p24, percent of virus control) (SK1 isolate of HIV-1; [5]): 14.6%
- p24 VALUES, MEAN (SK1 isolate of HIV-1; [5]): 9.0 µg/mL
- % VC (p24, percent of virus control) (SK1 isolate of HIV-1; 100 μg/ml, no mucin): 0.0%
- p24 VALUES, MEAN (SK1 isolate of HIV-1; 100 μg/ml, no mucin): 0.0 µg/mL
- p24 VALUES, single samples (SK1 isolate of HIV-1; 100 μg/ml, no mucin): 0.0 µg/mL
- % VC (p24, percent of virus control) (SK1 isolate of HIV-1; [6]): 8.0%
- p24 VALUES, MEAN (SK1 isolate of HIV-1; [6]): 4.9 µg/mL
- IC50 (inhibition of cell-cell transmission) (SK1 isolate of HIV-1; no mucin): IC50 = 0.002 μg/ml
- IC50 (inhibition of cell-cell transmission) (SK1 isolate of HIV-1; with 150 μg/ml pig mucin): IC50 = 0.002 μg/ml
- % CC (XTT, percent of cell control) (ME180 cells; 0.32 μg/ml, no mucin): 95.4%
- TOXICITY VALUES (XTT), MEAN (ME180 cells; 0.32 μg/ml, no mucin): 0.485 O.D. @ 450/650 nm
- TOXICITY VALUES (XTT), single samples (ME180 cells; 0.32 μg/ml, no mucin): 0.477 O.D. @ 450/650 nm and 0.473 O.D. @ 450/650 nm and 0.504 O.D. @ 450/650 nm
- % CC (XTT, percent of cell control) (ME180 cells; [1]): 95.4%
- TOXICITY VALUES (XTT), MEAN (ME180 cells; [1]): 0.485 O.D. @ 450/650 nm
- TOXICITY VALUES (XTT), single samples (ME180 cells; [1]): 0.477 O.D. @ 450/650 nm and 0.473 O.D. @ 450/650 nm and 0.504 O.D. @ 450/650 nm
- % CC (XTT, percent of cell control) (ME180 cells; 1 μg/ml, no mucin): 98.4%
- TOXICITY VALUES (XTT), MEAN (ME180 cells; 1 μg/ml, no mucin): 0.500 O.D. @ 450/650 nm
- TOXICITY VALUES (XTT), single samples (ME180 cells; 1 μg/ml, no mucin): 0.479 O.D. @ 450/650 nm and 0.519 O.D. @ 450/650 nm and 0.501 O.D. @ 450/650 nm
- % CC (XTT, percent of cell control) (ME180 cells; [2]): 98.4%
- TOXICITY VALUES (XTT), MEAN (ME180 cells; [2]): 0.500 O.D. @ 450/650 nm
- TOXICITY VALUES (XTT), single samples (ME180 cells; [2]): 0.479 O.D. @ 450/650 nm and 0.519 O.D. @ 450/650 nm and 0.501 O.D. @ 450/650 nm
- % CC (XTT, percent of cell control) (ME180 cells; 3.2 μg/ml, no mucin): 91.5%
- TOXICITY VALUES (XTT), MEAN (ME180 cells; 3.2 μg/ml, no mucin): 0.465 O.D. @ 450/650 nm
- TOXICITY VALUES (XTT), single samples (ME180 cells; 3.2 μg/ml, no mucin): 0.483 O.D. @ 450/650 nm and 0.456 O.D. @ 450/650 nm and 0.457 O.D. @ 450/650 nm
- % CC (XTT, percent of cell control) (ME180 cells; [3]): 91.6%
- TOXICITY VALUES (XTT), MEAN (ME180 cells; [3]): 0.465 O.D. @ 450/650 nm
- TOXICITY VALUES (XTT), single samples (ME180 cells; [3]): 0.483 O.D. @ 450/650 nm and 0.456 O.D. @ 450/650 nm and 0.457 O.D. @ 450/650 nm
- % CC (XTT, percent of cell control) (ME180 cells; 10 μg/ml, no mucin): 95.7%
- TOXICITY VALUES (XTT), MEAN (ME180 cells; 10 μg/ml, no mucin): 0.486 O.D. @ 450/650 nm
- TOXICITY VALUES (XTT), single samples (ME180 cells; 10 μg/ml, no mucin): 0.463 O.D. @ 450/650 nm and 0.499 O.D. @ 450/650 nm and 0.497 O.D. @ 450/650 nm
- % CC (XTT, percent of cell control) (ME180 cells; [4]): 95.7%
- TOXICITY VALUES (XTT), MEAN (ME180 cells; [4]): 0.486 O.D. @ 450/650 nm
- TOXICITY VALUES (XTT), single samples (ME180 cells; [4]): 0.463 O.D. @ 450/650 nm and 0.499 O.D. @ 450/650 nm and 0.497 O.D. @ 450/650 nm
- % CC (XTT, percent of cell control) (ME180 cells; 32 μg/ml, no mucin): 92.5%
- TOXICITY VALUES (XTT), MEAN (ME180 cells; 32 μg/ml, no mucin): 0.470 O.D. @ 450/650 nm
- TOXICITY VALUES (XTT), single samples (ME180 cells; 32 μg/ml, no mucin): 0.444 O.D. @ 450/650 nm and 0.466 O.D. @ 450/650 nm and 0.499 O.D. @ 450/650 nm
- % CC (XTT, percent of cell control) (ME180 cells; [5]): 92.5%
- TOXICITY VALUES (XTT), MEAN (ME180 cells; [5]): 0.470 O.D. @ 450/650 nm
- TOXICITY VALUES (XTT), single samples (ME180 cells; [5]): 0.444 O.D. @ 450/650 nm and 0.466 O.D. @ 450/650 nm and 0.499 O.D. @ 450/650 nm
- % CC (XTT, percent of cell control) (ME180 cells; 100 μg/ml, no mucin): 98.7%
- TOXICITY VALUES (XTT), MEAN (ME180 cells; 100 μg/ml, no mucin): 0.491 O.D. @ 450/650 nm
- TOXICITY VALUES (XTT), single samples (ME180 cells; 100 μg/ml, no mucin): 0.479 O.D. @ 450/650 nm and 0.500 O.D. @ 450/650 nm and 0.495 O.D. @ 450/650 nm
- % CC (XTT, percent of cell control) (ME180 cells; [6]): 98.7%
- TOXICITY VALUES (XTT), MEAN (ME180 cells; [6]): 0.491 O.D. @ 450/650 nm
- TOXICITY VALUES (XTT), single samples (ME180 cells; [6]): 0.479 O.D. @ 450/650 nm and 0.500 O.D. @ 450/650 nm and 0.495 O.D. @ 450/650 nm
- TC50 (concentration at which 50% of cells are eliminated) (ME180 cells; no mucin): TC50 = 1 μg/ml
- TC50 (concentration at which 50% of cells are eliminated) (ME180 cells; with 150 μg/ml pig mucin): TC50 = 1 μg/ml
